Test results from patent US6974798B2, “Treatment of balance impairments” (Genentech, Inc., priority 1995, dated 2005).
“Also recorded” adds a separate entry of the source.

Tests used:
[1] = tested on: vestibular ganglion neurons (VGNs); experiment: VGN survival in dissociated cell culture, serum-free medium, 2 days; assay type: cell-based, rat; conditions: 10 ng/ml added at plating, 2 days, FIG. 2
Method: (§1) The effects of trkB or trkC agonists to enhance neuronal survival was determined using VGNs in cell culture. VGN cell culture was prepared as follows. Vestibular ganglia were dissected from postnatal day 5 (P5) Wistar rats and were incubated in a mixture of 0.125% trypsin and 0.125% collagenase for 25 min at 37° C. The enzyme was inactivated with a mixture of 0.005% soybean trypsin inhibitor (Sigma) and 0.005% DNase (Worthington) before trituration with 0.05% DNase in Eagle's Basal Medium (“BME”). After the undissociated tissues were separated by filtering with a Nylon meshwork (33 μm in pore size), the dissociated cells were preplated on a 35 mm untreated tissue culture dish for 25 min to enrich the neuronal population. Under these experimental procedures, about 3-5% of the cell population were vestibular ganglion neurons (VGNs) as determined by immunocytochemistry with a monoclonal antibody (N52; Boehringer) against neurofilament (200 kd). The cell suspension was finally plated on polylysine (500 μg/ml)laminin (20 μg/ml) coated 16-well LabTek slides in 200 μl of serum-free medium (BME plus serum-free supplement (Sigma I-1884), 1% BSA, 2 mM glutamine, and 5 mg/ml glucose) containing no antibiotics. Cells were plated at a density of 100,000/well.
All human recombinant neurotrophins (obtained from Genentech, Inc.) were added to the cultures at the time of plating.
(§2) Cell counts and data analysis were performed as follows. After 2 days in culture, viable VGNs were identified by labeling with the neurofilament monoclonal antibody N52 and counted using a grid ocular reticule covering an area of 1 mm^2 under a Zeiss Axiophot microscope. For each culture, about 10 randomly selected fields were counted. In these experiments, cell counts were performed in the same way for control cultures. Data were collected from triplet cultures for each of the experimental groups. Data were then normalized as a percentage of the viable VGNs in the control cultures in each of the experiments.
The effect of neurotrophins on cell survival was determined on VGNs which were dissociated from postnatal day 5 (P5) rat vestibular ganglia and plated in defined serum-free medium. Neurofilament protein immunocytochemistry using bright field microscopy was performed in the VGN cultures in serum-free medium in the absence or presence of 10 ng/ml of NT-4/5. In control cultures in serum-free medium without neurotrophins, about 35% of VGNs survived after 2 days. […] The survival-promoting effects of NT-4/5 on cultured VGNs were dose-dependent (FIG. 1).

[2] = tested on: vestibular ganglion neurons (VGNs); experiment: Blocking of neurotrophin survival-promoting effects by trkB-IgG / trkC-IgG in VGN culture; assay type: cell-based, rat; conditions: for effect on VGN cultures by themselves (without neurotrophin): 1 μg/ml, alone; for effect of trkB-IgG and trkC-IgG together on the effects of NT-4/5 and NT-3: both fusion proteins together
Method: as §1, §2
TrkB-IgG and trkC-IgG have been previously reported to be specific antagonists for NT-4/5 (or BDNF) and NT-3, respectively (Shelton et al., 1995). To confirm that the survival-promoting effects of NT-4/5, BDNF and NT-3 were specific, trkB-IgG or trkC-IgG fusion protein was added to the culture along with NT-4/5, BDNF or NT-3. All human recombinant neurotrophins (Genentech, Inc.) were added to the cultures at the time of plating. To block the effects of the neurotrophins, 1 μg/ml of trkB-IgG or trkC-IgG (kindly provided by Dr. Dave Shelton), specific antagonists for NT-4/5 (and BDNF) or NT-3, respectively (Shelton et al., 1995), was added to some of the experimental cultures at the same time when neurotrophins were added.

Substance	survival-promoting effect on VGNs [1]	effect on VGN cultures by themselves (without neurotrophin) [2]	effect of trkB-IgG and trkC-IgG together on the effects of NT-4/5 and NT-3 [2]	also measured
EGF: epidermal growth factor	not affected; also recorded: did not produce significant effects			
βFGF: basic fibroblast growth factor	not affected; also recorded: did not produce significant effects			
IGF-1: insulin-like growth factor-1	not affected; also recorded: did not produce significant effects			
trkC-IgG: trkC-IgG fusion protein, specific antagonist for NT-3 (Shelton et al., 1995)		did not show detectable effects	blocked	inhibition of the survival-promoting effect of NT-3 ([2]; 1 μg/ml antagonist, 10 ng/ml NT-3, FIG. 3): inhibited the activity of NT-3; also recorded: inhibit
trkB-IgG: trkB-IgG fusion protein, specific antagonist for NT-4/5 and BDNF (Shelton et al., 1995)		did not show detectable effects	blocked	inhibition of the survival-promoting effect of BDNF ([2]; 1 μg/ml antagonist, 10 ng/ml BDNF, FIG. 3): completely abolished; also recorded: inhibit; inhibition of the survival-promoting effect of NT-4/5 ([2]; 1 μg/ml antagonist, 10 ng/ml NT-4/5, FIG. 3): completely abolished; also recorded: inhibit
